This is an account of results in patent US8314098B2, “Pyrazolo-pyrimidine compounds” (Ajinomoto Co., Inc., priority 2008, dated 2012).

The structures appear in SMILES notation.

This test relates to IL-12p70 (the complex of IL-12p35 and p40). Put plainly: IL-12p70 production inhibition in macrophages derived from mouse abdomen (IFN-γ/SAC stimulation, ELISA). To be noted: Macrophage; mouse (Balb/c) abdominal macrophages, 100 ng/mL mouse IFN-γ + 0.05% SAC, overnight; TFA salts tested where prepared as such; read-out: IL-12p70-Inhibitory Activity IC50. The class given is cell-based. How it is done: One milliliter each of a 3% (w/v) thioglycolate solution was intraperitoneally administered to mice (female Balb/c mice), the abdominal cells of each mouse were recovered after 5 or 6 days from the administration of the thioglycolate solution and the adhesive cells were collected and used in the exaluation procedures. To a culture medium containing such adhesive cells, there were added 100 ng/mL of mouse interferon-γ and a 0.05% (v/v) liquid containing killed cells derived from Staphylococcus aureus Cowan I strain (SAC) and a candidate compound and then the mixture was cultivated overnight. After the completion of the cultivation, the survival ratios were determined, there were quantitatively determined the quantities of IL-12p70 (the complex of IL-12p35 and p40) and IL-12p40 or TNF-α according to the ELISA assays while making use of the recovered supernatant of the culture medium and the 50% production-inhibitory concentration (IC50) was calculated for each case (see Table 1 and Tables 1-9 for IL-12p70 and TNF-α and Tables 1 to 10 for IL-12p40).
(ELISA stands for enzyme-linked immunosorbent assay.)
As usually defined, the IC50 is the concentration that inhibits the measured activity by half. Turning to `Clc1ccccc1/C=N/Nc1cc(N2CCOCC2)n2nc(-c3ccccc3)cc2n1` [Compound 25, N-(2-chloro-benzylidene)-N′-(7-morpholin-4-yl-2-phenyl-pyrazolo[1,5-a]pyrimidin-5-yl)-hydrazine], the IC50 was found to be 150 nM.
For `Clc1cccc(/C=N/Nc2cc(N3CCOCC3)n3nc(-c4ccccc4)cc3n2)c1` [Compound 26, N-(3-chloro-benzylidene)-N′-(7-morpholin-4-yl-2-phenyl-pyrazolo[1,5-a]pyrimidin-5-yl)-hydrazine], the half-inhibitory concentration (IC50) was determined as 120 nM.
For the molecule `COc1ccccc1/C=N/Nc1cc(N2CCOCC2)n2nc(-c3ccccc3)cc2n1` [Compound 28, N-(2-methoxy-benzylidene)-N′-(7-morpholin-4-yl-2-phenyl-pyrazolo[1,5-a]pyrimidin-5-yl)-hydrazine], the IC50 is 160 nM.
The result for `COc1ccc(/C=N/Nc2cc(N3CCOCC3)n3nc(-c4ccccc4)cc3n2)cc1` [Compound 30, N-(4-methoxy-benzylidene)-N′-(7-morpholin-4-yl-2-phenyl-pyrazolo[1,5-a]pyrimidin-5-yl)-hydrazine] reads 180 nM; that for `COCCN(CCOC)c1ccc(-c2cc3nc(N/N=C/c4cccc(C)c4)cc(N4CCOCC4)n3n2)cc1` [Compound 32, N-{2-[4-bis-(2-methoxy-ethyl-amino)-phenyl]-7-morpholin-4-yl-pyrazolo[1,5-a]pyrimidin-5-yl}-N′-(3-methyl-benzylidene)-hydrazine], 9.6 nM; that for `Cc1cccc(/C=N/Nc2cc(N3CCOCC3)n3nc(-c4ccco4)cc3n2)c1` [Compound 33, N-(2-furan-2-yl-7-morpholin-4-yl-pyrazolo[1,5-a]-pyrimidin-5-yl)-N′-(3-methyl-benzylidene)-hydrazine], 17 nM.
With `Cc1cccc(/C=N/Nc2cc(N3CCOCC3)n3nc(OCCOc4ccccc4)cc3n2)c1` [Compound 37, N-(3-methyl-benzylidene)-N′-[7-morpholin-4-yl-2-(2-phenoxy-ethoxy)-pyrazolo[1,5-a]pyrimidin-5-yl]-hydrazine] the figure was 110 nM; with `Cc1ccc(/C=N/Nc2cc(N3CCOCC3)n3nc(-c4ccccc4)cc3n2)o1` [Compound 54, N-(5-methyl-furan-2-yl-methylidene)-N′-(7-morpholin-4-yl-2-phenyl-pyrazolo[1,5-a]pyrimidin-5-yl)-hydrazine], 300 nM; with `Cc1ccccc1/C=N/Nc1cc(N2CCOCC2)n2nc(-c3ccccc3)cc2n1` [Compound 57, N-(2-methyl-benzylidene)-N′-(7-morpholin-4-yl-2-phenyl-pyrazolo[1,5-a]pyrimidin-5-yl)-hydrazine], 420 nM.
Turning to `C(=N\Nc1cc(N2CCOCC2)n2nc(-c3ccccc3)cc2n1)/c1cccs1` [Compound 61, N-(7-morpholin-4-yl-2-phenyl-pyrazolo[1,5-a]pyrimidin-5-yl)-N′-(thiophen-2-yl-methylidene)-hydrazine], the half-maximal inhibitory concentration (IC50) amounted to 370 nM.
With `Cc1ccsc1/C=N/Nc1cc(N2CCOCC2)n2nc(-c3ccccc3)cc2n1` [Compound 62, N-(3-methyl-thiophen-2-yl-methylidene)-N′-(7-morpholin-4-yl-2-phenyl-pyrazolo[1,5-a]pyrimidin-5-yl)-hydrazine] the figure was 320 nM; with `CC(/C=N/Nc1cc(N2CCOCC2)n2nc(-c3ccccc3)cc2n1)=C\c1ccccc1` [Compound 63, N-(2-methyl-3-phenyl-alkylidene)-N′-(7-morpholin-4-yl-2-phenyl-pyrazolo[1,5-a]pyrimidin-5-yl)-hydrazine], 320 nM.
The result for `CN(Cc1ccccc1)Nc1cc(N2CCOCC2)n2nc(-c3ccccc3)cc2n1` [Compound 66, N-benzyl-N-methyl-N′-(7-morpholin-4-yl-2-phenyl-pyrazolo[1,5-a]pyrimidin-5-yl)-hydrazine] reads 330 nM; that for `C(=N\Nc1cc(N2CCOCC2)n2nc(-c3ccccc3)cc2n1)/c1cccc2[nH]ccc12` [Compound 72, N-(1H-indol-4-yl-methylidene)-N′-(7-morpholin-4-yl-2-phenyl-pyrazolo[1,5-a]pyrimidin-5-yl)-hydrazine], 190 nM; that for `Cc1nc2sccn2c1/C=N/Nc1cc(N2CCOCC2)n2nc(-c3ccccc3)cc2n1` [Compound 75, N-(6-methy-imidazo[2,1-b]thiazole-5-methylidene)-N′-(7-morpholin-4-yl-2-phenyl-pyrazolo[1,5-a]pyrimidin-5-yl)-hydrazine], 290 nM.
With `Cc1[nH]c2ccccc2c1/C=N/Nc1cc(N2CCOCC2)n2nc(-c3ccccc3)cc2n1` [Compound 78, N-(2-methyl-1H-indol-3-yl-methylidene)-N′-(7-morpholin-4-yl-2-phenyl-pyrazolo[1,5-a]pyrimidin-5-yl)-hydrazine] the figure was 440 nM; with `C(=N\Nc1cc(N2CCOCC2)n2nc(-c3ccc(N4CCOCC4)nc3)cc2n1)/c1c[nH]c2ccccc12` [Compound 86, N-(1H-indol-3-yl-methylidene)-N′-[7-morpholin-4-yl-2-(6-morpholin-4-yl-pyridin-3-yl)-pyrazolo[1,5-a]pyrimidin-5-yl]-hydrazine], 1.8 nM.
Consider `COc1ccc(/C=N/Nc2cc(N3CCOCC3)n3nc(-c4ccncc4)cc3n2)cc1C` [Compound 92, N-(4-methoxy-3-methyl-benzylidene)-N′-(7-morpholin-4-yl-2-pyridin-4-yl-pyrazolo[1,5-a]pyrimidin-5-yl)-hydrazine], for which the IC50 is 44 nM.
With `C(=N\Nc1cc(N2CCOCC2)n2nc(-c3cnccn3)cc2n1)/c1c[nH]c2ccccc12` [Compound 93, N-(1H-indol-3-yl-methylidene)-N′-(7-morpholin-4-yl-2-pyrazin-2-yl-pyrazolo[1,5-a]pyrimidin-5-yl)-hydrazine] the figure was 6.5 nM; with `Cc1cccc(/C=N/Nc2cc(N3CCOCC3)n3nc(-c4cc(C)on4)cc3n2)c1` [Compound 98, N-(3-methyl-benzylidene)-N′-[2-(5-methylisoxazol-3-yl)-7-morpholin-4-yl-pyrazolo[1,5-a]pyrimidin-5-yl]-hydrazine], 26 nM; with `Cc1cc(-c2cc3nc(N/N=C/c4c[nH]c5ccccc45)cc(N4CCOCC4)n3n2)no1` [Compound 99, N-(1H-indol-3-yl-methylidene)-N′-[2-(5-methylisoxazol-3-yl)-7-morpholin-4-yl-pyrazolo[1,5-a]pyrimidin-5-yl]-hydrazine], 16 nM.
As for `Cc1cccc(/C=N/Nc2cc(N3CCOCC3)n3nc(N4CCCCC4)cc3n2)c1` [Compound 100, N-(3-methyl-benzylidene)-N-(7-morpholin-4-yl-2-piperidin-1-yl-pyrazolo[1,5-a]pyrimidin-5-yl)-hydrazine], the IC50 came to 360 nM.
With `C(=N\Nc1cc(N2CCOCC2)n2nc(N3CCCCC3)cc2n1)/c1c[nH]c2ccccc12` [Compound 101, N-(1H-indol-3-yl-methylidene)-N-(7-morpholin-4-yl-2-piperidin-1-yl-pyrazolo[1,5-a]pyrimidin-5-yl)-hydrazine] the figure was 380 nM; with `C(=N\Nc1cc(N2CCOCC2)n2nc(-c3cccnc3)cc2n1)/c1ccc2[nH]ccc2c1` [Compound 103, N-(1H-indol-5-yl-methylidene)-N-(7-morpholin-4-yl-2-pyridin-3-yl-pyrazolo[1,5-a]pyrimidin-5-yl)-hydrazine], 160 nM.
With `Cc1[nH]c2ccc(/C=N/Nc3cc(N4CCOCC4)n4nc(-c5cccnc5)cc4n3)cc2c1C` [Compound 105, N-(2,3-dimethyl-1H-indol-5-yl-methylidene)-N-(7-morpholin-4-yl-2-pyridin-3-yl-pyrazolo[1,5-a]pyrimidin-5-yl)-hydrazine] the figure was 89 nM; with `Cc1[nH]c2ccc(/C=N/Nc3cc(N4CCOCC4)n4nc(-c5cnccn5)cc4n3)cc2c1C` [Compound 107, N-(2,3-dimethyl-1H-indol-5-yl-methylidene)-N-(7-morpholin-4-yl-2-pyrazin-2-yl-pyrazolo[1,5-a]pyrimidin-5-yl)-hydrazine], 170 nM.
The result for `C(=N\Nc1cc(N2CCOCC2)n2nc(-c3ccncc3)cc2n1)/c1csc2ccccc12` [Compound 109, N-benzo[b]thiophen-3-yl-methylidene-N′-(7-morpholin-4-yl-2-pyridin-4-yl-pyrazolo[1,5-a]pyrimidin-5-yl)-hydrazine] reads 490 nM; that for `Cc1cccc(/C=N/Nc2cc(N3CCOCC3)n3nc(-c4ccc(C)nc4)cc3n2)c1` [Compound 110, N-(3-methyl-benzylidene)-N′-[2-(6-methyl-pyridin-3-yl)-7-morpholin-4-yl-pyrazolo[1,5-a]pyrimidin-5-yl]-hydrazine], 7.3 nM; that for `Cc1ccc(-c2cc3nc(N/N=C/c4coc5ccccc45)cc(N4CCOCC4)n3n2)cn1` [Compound 111, N-benzofuran-3-yl-methylidene-N′-[2-(6-methyl-pyridin-3-0)-7-morpholin-4-yl-pyrazolo[1,5-a]pyrimidin-5-yl]-hydrazine], 37 nM.
As for `Cc1ccc(-c2cc3nc(N/N=C/c4c[nH]c5ccccc45)cc(N4CCOCC4)n3n2)cn1` [Compound 112, N-(1H-indol-3-yl-methylidene)-N′-[2-(6-methyl-pyridin-3-yl)-7-morpholin-4-yl-pyrazolo[1,5-a]pyrimidin-5-yl]-hydrazine], the IC50 worked out at 7.5 nM.
With `C(=N\Nc1cc(N2CCOCC2)n2nc(-c3ccncc3)cc2n1)/c1ccc2c(c1)OCCO2` [Compound 113, N-(2,3-dihydro-benzo[1,4]dioxin-6-yl-methylidene)-N′-(7-morpholin-4-yl-2-pyridin-4-yl-pyrazolo[1,5-a]pyrimidin-5-yl)-hydrazine] the figure was 98 nM.
